Measured values published in PMC11394424, “The RAL Small G Proteins Are Clinically Relevant Targets in Triple Negative Breast Cancer” (Cancers, 2024).

Target: T1, RALA (Homo sapiens, UniProt P11233)
T1 construct: recombinant RALA, site-specifically biotinylated on the N-terminus
T1 sequence (P11233 1-203): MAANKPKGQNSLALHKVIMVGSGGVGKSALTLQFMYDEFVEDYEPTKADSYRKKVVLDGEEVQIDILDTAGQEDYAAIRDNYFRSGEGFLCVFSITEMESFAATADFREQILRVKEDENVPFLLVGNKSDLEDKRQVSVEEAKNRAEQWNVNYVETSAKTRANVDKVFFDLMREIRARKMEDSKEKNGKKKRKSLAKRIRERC
Test: SPR (Biacore 8K, steady-state affinity, biotinylated RALA on SA chip)
Assay type: binding

OSURALi
Kd: 948 nM
